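Values below derive from 48-hour exposures of cells grown in 96-well plates, with endpoints linearly interpolated between the two concentrations bracketing the appropriate inhibition level. GI50 marks 50% less growth. Definition used: TGI = concentration required for complete inhibition of growth.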
Assays:
Assay in all cases: growth of human tumour cells (NCI), 48 h
SNB-19 CNS = tested on: SNB-19 CNS
NCI-H23 lung = tested on: NCI-H23 lung
CCRF-CEM leukemia = tested on: CCRF-CEM leukemia
M19-MEL melanoma = tested on: M19-MEL melanoma
HCT-116 colon = tested on: HCT-116 colon
NCI-H226 lung = tested on: NCI-H226 lung
IGROV1 ovarian = tested on: IGROV1 ovarian
NCI-H522 lung = tested on: NCI-H522 lung
OVCAR-3 ovarian = tested on: OVCAR-3 ovarian
SF-539 CNS = tested on: SF-539 CNS
KM12 colon = tested on: KM12 colon
UACC-257 melanoma = tested on: UACC-257 melanoma
COLO 205 colon = tested on: COLO 205 colon
OVCAR-8 ovarian = tested on: OVCAR-8 ovarian
LXFL 529 NSCLC = tested on: LXFL 529 NSCLC
SK-MEL-28 melanoma = tested on: SK-MEL-28 melanoma
HCC-2998 colon = tested on: HCC-2998 colon
UO-31 renal = tested on: UO-31 renal
RPMI-8226 leukemia = tested on: RPMI-8226 leukemia
NCI-H460 lung = tested on: NCI-H460 lung
SW-620 colon = tested on: SW-620 colon
SF-268 CNS = tested on: SF-268 CNS
U251 CNS = tested on: U251 CNS
MOLT-4 leukemia = tested on: MOLT-4 leukemia
SF-295 CNS = tested on: SF-295 CNS
HT29 colon = tested on: HT29 colon
TK-10 renal = tested on: TK-10 renal
A549 NSCLC = tested on: A549 NSCLC
K-562 leukemia = tested on: K-562 leukemia
SK-OV-3 ovarian = tested on: SK-OV-3 ovarian
HOP-92 NSCLC = tested on: HOP-92 NSCLC
ACHN renal = tested on: ACHN renal
DLD-1 colon = tested on: DLD-1 colon
HOP-62 NSCLC = tested on: HOP-62 NSCLC
SK-MEL-5 melanoma = tested on: SK-MEL-5 melanoma
HL-60(TB) leukemia = tested on: HL-60(TB) leukemia
SR leukemia = tested on: SR leukemia
UACC-62 melanoma = tested on: UACC-62 melanoma
SNB-75 CNS = tested on: SNB-75 CNS
CAKI-1 renal = tested on: CAKI-1 renal
SK-MEL-2 melanoma = tested on: SK-MEL-2 melanoma
RXF 393 renal = tested on: RXF 393 renal
SN12C renal = tested on: SN12C renal
MALME-3M melanoma = tested on: MALME-3M melanoma
HCT-15 colon = tested on: HCT-15 colon
A498 renal = tested on: A498 renal
M14 melanoma = tested on: M14 melanoma
OVCAR-5 ovarian = tested on: OVCAR-5 ovarian
LOX IMVI melanoma = tested on: LOX IMVI melanoma
OVCAR-4 ovarian = tested on: OVCAR-4 ovarian
KM20L2 colon = tested on: KM20L2 colon
786-0 renal = tested on: 786-0 renal
EKVX NSCLC = tested on: EKVX NSCLC
HOP-18 NSCLC = tested on: HOP-18 NSCLC

In the case of `CCOC(=O)/C(C#N)=C1/Sc2c(ncn(/N=C/c3ccc(OC)cc3)c2=O)N1c1ccccc1`, the TGI (SNB-19 CNS) is reported as over 100 µM, the TGI (NCI-H23 lung) is reported as over 100 µM and the TGI (CCRF-CEM leukemia) is reported as over 100 µM. For the same compound, the TGI (M19-MEL melanoma) was over 100 µM, the TGI (HCT-116 colon) was over 100 µM and the TGI (NCI-H226 lung) was over 100 µM. It also gave a TGI (IGROV1 ovarian) of over 100 µM, a TGI (NCI-H522 lung) of over 100 µM and a TGI (OVCAR-3 ovarian) of over 100 µM. The TGI (SF-539 CNS) was 34.8 µM, the TGI (KM12 colon) was over 100 µM and the TGI (UACC-257 melanoma) was over 100 µM. The TGI (COLO 205 colon) was over 100 µM, the TGI (OVCAR-8 ovarian) was over 100 µM and the TGI (LXFL 529 NSCLC) was over 100 µM. The TGI (SK-MEL-28 melanoma) was 81.5 µM, the TGI (HCC-2998 colon) was over 100 µM and the TGI (UO-31 renal) was over 100 µM. For the same compound, the TGI (RPMI-8226 leukemia) was over 100 µM, the TGI (NCI-H460 lung) was over 100 µM and the TGI (SW-620 colon) was over 100 µM. It also gave a TGI (SF-268 CNS) of 77.7 µM, a TGI (U251 CNS) of over 100 µM and a TGI (MOLT-4 leukemia) of over 100 µM. The TGI (SF-295 CNS) was 76.2 µM, the TGI (HT29 colon) was over 100 µM and the TGI (TK-10 renal) was over 100 µM. It also gave a TGI (A549 NSCLC) of over 100 µM, a TGI (K-562 leukemia) of over 100 µM and a TGI (SK-OV-3 ovarian) of over 100 µM. It also gave a TGI (HOP-92 NSCLC) of 59 µM, a TGI (ACHN renal) of over 100 µM and a TGI (DLD-1 colon) of over 100 µM. The TGI (HOP-62 NSCLC) was 62.3 µM, the TGI (SK-MEL-5 melanoma) was over 100 µM and the TGI (HL-60(TB) leukemia) was over 100 µM. For the same compound, the TGI (SR leukemia) was over 100 µM and the TGI (UACC-62 melanoma) was over 100 µM.
For `C1COCCOCCOCCOCCOCCO1.[Cl][Sn]([Cl])([c]1ccccc1)[c]1ccccc1`, the GI50 (SNB-19 CNS) was 6.48 µM, the TGI (SNB-19 CNS) was 14.5 µM and the GI50 (NCI-H23 lung) was 2.97 µM. The TGI (NCI-H23 lung) was 8.84 µM, the GI50 (HCT-116 colon) was 5.53 µM and the TGI (HCT-116 colon) was 17.3 µM. For the same compound, the GI50 (NCI-H226 lung) was 11.5 µM, the TGI (NCI-H226 lung) was 27.9 µM and the GI50 (SNB-75 CNS) was 5.19 µM. For the same compound, the TGI (SNB-75 CNS) was 19.6 µM, the GI50 (CAKI-1 renal) was 0.478 µM and the TGI (CAKI-1 renal) was 1.75 µM. For the same compound, the GI50 (IGROV1 ovarian) was 11.2 µM, the TGI (IGROV1 ovarian) was 23.7 µM and the GI50 (NCI-H522 lung) was 0.766 µM. For the same compound, the TGI (NCI-H522 lung) was 2.05 µM, the GI50 (OVCAR-3 ovarian) was 4.88 µM and the TGI (OVCAR-3 ovarian) was 15.5 µM. For the same compound, the GI50 (SF-539 CNS) was 2.94 µM, the TGI (SF-539 CNS) was 8.53 µM and the GI50 (KM12 colon) was 12.6 µM. It also gave a TGI (KM12 colon) of 26.4 µM, a GI50 (SK-MEL-2 melanoma) of 1.7 µM and a TGI (SK-MEL-2 melanoma) of 3.25 µM. The GI50 (UACC-257 melanoma) was 2.08 µM, the TGI (UACC-257 melanoma) was 4.63 µM and the GI50 (COLO 205 colon) was 1.83 µM. It also gave a TGI (COLO 205 colon) of 4.34 µM, a GI50 (OVCAR-8 ovarian) of 4.97 µM and a TGI (OVCAR-8 ovarian) of 16.4 µM. The GI50 (SK-MEL-28 melanoma) was 2 µM, the TGI (SK-MEL-28 melanoma) was 4.19 µM and the GI50 (HCC-2998 colon) was 6.06 µM. For the same compound, the TGI (HCC-2998 colon) was 18.9 µM, the GI50 (UO-31 renal) was 14.1 µM and the TGI (UO-31 renal) was 27.2 µM. It also gave a GI50 (RPMI-8226 leukemia) of 2.02 µM, a TGI (RPMI-8226 leukemia) of 6.15 µM and a GI50 (NCI-H460 lung) of 15.1 µM. The TGI (NCI-H460 lung) was 30.5 µM, the GI50 (SW-620 colon) was 1.65 µM and the TGI (SW-620 colon) was 3.28 µM. The GI50 (RXF 393 renal) was 2.21 µM, the TGI (RXF 393 renal) was 4.06 µM and the GI50 (SN12C renal) was 7.02 µM. It also gave a TGI (SN12C renal) of 20.4 µM, a GI50 (MALME-3M melanoma) of 1.99 µM and a TGI (MALME-3M melanoma) of 3.82 µM. It also gave a GI50 (SF-268 CNS) of 2.8 µM, a TGI (SF-268 CNS) of 8.65 µM and a GI50 (U251 CNS) of 2.65 µM. The TGI (U251 CNS) was 6.81 µM, the GI50 (MOLT-4 leukemia) was 3.21 µM and the TGI (MOLT-4 leukemia) was 14.5 µM. The GI50 (HCT-15 colon) was 4.14 µM, the TGI (HCT-15 colon) was 13.5 µM and the GI50 (A498 renal) was 3.12 µM. It also gave a TGI (A498 renal) of 11.9 µM, a GI50 (SF-295 CNS) of 16.1 µM and a TGI (SF-295 CNS) of 30 µM. The GI50 (HT29 colon) was 7.28 µM, the TGI (HT29 colon) was 18.9 µM and the GI50 (TK-10 renal) was 2.78 µM. For the same compound, the TGI (TK-10 renal) was 7.01 µM, the GI50 (M14 melanoma) was 4.25 µM and the TGI (M14 melanoma) was 12.4 µM. For the same compound, the GI50 (A549 NSCLC) was 20.2 µM, the TGI (A549 NSCLC) was 34.4 µM and the GI50 (OVCAR-5 ovarian) was 17.8 µM. The TGI (OVCAR-5 ovarian) was 31.6 µM, the GI50 (K-562 leukemia) was 2.44 µM and the TGI (K-562 leukemia) was 10.2 µM. It also gave a GI50 (SK-OV-3 ovarian) of 16.6 µM, a TGI (SK-OV-3 ovarian) of 30.2 µM and a GI50 (HOP-92 NSCLC) of 2.26 µM. The TGI (HOP-92 NSCLC) was 4.52 µM, the GI50 (LOX IMVI melanoma) was 2.36 µM and the TGI (LOX IMVI melanoma) was 4.77 µM. For the same compound, the GI50 (OVCAR-4 ovarian) was 12.3 µM, the TGI (OVCAR-4 ovarian) was 26.3 µM and the GI50 (ACHN renal) was 10.9 µM. For the same compound, the TGI (ACHN renal) was 22.8 µM, the GI50 (HOP-62 NSCLC) was 20.3 µM and the TGI (HOP-62 NSCLC) was 35 µM. For the same compound, the GI50 (SK-MEL-5 melanoma) was 4.86 µM, the TGI (SK-MEL-5 melanoma) was 17.2 µM and the GI50 (HL-60(TB) leukemia) was 2.64 µM. For the same compound, the TGI (HL-60(TB) leukemia) was 7.55 µM, the GI50 (KM20L2 colon) was 7.02 µM and the TGI (KM20L2 colon) was 18.2 µM. The GI50 (UACC-62 melanoma) was 1.86 µM, the TGI (UACC-62 melanoma) was 4.12 µM and the GI50 (786-0 renal) was 2.41 µM. The TGI (786-0 renal) was 5.51 µM, the GI50 (EKVX NSCLC) was 6.77 µM and the TGI (EKVX NSCLC) was 19 µM.
With `Nc1c(C(=O)N/N=C/c2ccc(Cl)cc2)sc(=S)n1-c1ccccc1` the TGI (SNB-19 CNS) was over 100 µM, the TGI (NCI-H23 lung) was over 100 µM and the TGI (CCRF-CEM leukemia) was over 100 µM. For the same compound, the TGI (M19-MEL melanoma) was over 100 µM, the TGI (HCT-116 colon) was over 100 µM and the TGI (NCI-H226 lung) was over 100 µM. It also gave a TGI (SNB-75 CNS) of over 100 µM, a TGI (IGROV1 ovarian) of over 100 µM and a TGI (NCI-H522 lung) of 91.9 µM. For the same compound, the TGI (OVCAR-3 ovarian) was over 100 µM, the TGI (SF-539 CNS) was over 100 µM and the TGI (KM12 colon) was over 100 µM. It also gave a TGI (UACC-257 melanoma) of over 100 µM, a TGI (COLO 205 colon) of over 100 µM and a TGI (OVCAR-8 ovarian) of over 100 µM. For the same compound, the TGI (LXFL 529 NSCLC) was over 100 µM, the TGI (SK-MEL-28 melanoma) was over 100 µM and the TGI (HCC-2998 colon) was over 100 µM. The TGI (HOP-18 NSCLC) was over 100 µM, the TGI (UO-31 renal) was over 100 µM and the TGI (NCI-H460 lung) was over 100 µM. It also gave a TGI (SW-620 colon) of over 100 µM, a TGI (SF-268 CNS) of over 100 µM and a TGI (A498 renal) of over 100 µM. It also gave a TGI (SF-295 CNS) of over 100 µM, a TGI (HT29 colon) of over 100 µM and a TGI (TK-10 renal) of over 100 µM. For the same compound, the TGI (A549 NSCLC) was over 100 µM, the TGI (OVCAR-5 ovarian) was over 100 µM and the TGI (K-562 leukemia) was over 100 µM. It also gave a TGI (SK-OV-3 ovarian) of over 100 µM, a TGI (HOP-92 NSCLC) of over 100 µM and a TGI (ACHN renal) of over 100 µM. The TGI (DLD-1 colon) was over 100 µM, the TGI (HOP-62 NSCLC) was over 100 µM and the TGI (SK-MEL-5 melanoma) was over 100 µM. The TGI (HL-60(TB) leukemia) was over 100 µM and the TGI (UACC-62 melanoma) was over 100 µM.

From PubChem BioAssay (NCI)
